Assay results published in patent publication US20020132793A1, “Use of methylphenidate compounds to enhance memory” (priority 2000, published 2002).

Assays:
[1] = test system: rats with lesions of the fornix; assay: Inhibitory Avoidance (IA) task in rats with lesions of the fornix; format: in vivo, rat; settings: 5 mg/kg, one hour before
[2] = test system: IA memory in the rat; assay: Inhibitory Avoidance (IA) task in normal rats; format: in vivo; settings: for retention on the IA task: FIG. 1
Procedure: An exemplary passive avoidance test utilizes an apparatus that consists of a lit chamber that can be separated from a dark chamber by a sliding door. At training, the animal is placed in the lit chamber for some period of time, and the door is opened. The animal moves to the dark chamber after a short delay—the latency—that is recorded. Upon entry into the dark chamber, the door is shut closed and a foot shock is delivered. Retention of the experience is determined after various time intervals, e.g., 24 or 48 hours, by repeating the test and recording the latency. The protocol is one of many variants of the passive avoidance procedures (for review, see Rush (1988) Behav Neural Biol 50:255).
The Inhibitory Avoidance (IA) task is a well-studied behavioral paradigm which can provide the researcher with a consistent and long-lasting measure of memory. The paradigm consists of one training trial and one retention trial. Test articles may be administered to the rats either before or after training. Improved memory, as a result of test compound administration, is evident as increased latency on the retention trial. The objective of the following experiments was to investigate the effects of methylphenidate on IA memory in the rat.
In this experiment, rats were injected with three different doses of methylphenidate thirty minutes prior to training on the IA task.
Rats were injected with 5 mg/kg of methylphenidate and trained on the IA task.
In this experiment, the time of drug administration was varied in order to determine the optimal pre-training drug administration time.
This experiment was conducted in order to determine whether the enhanced retention observed in Experiment 2 was long-lasting. Rats received a second retention test one week after the first retention test. No additional training or drug was administered to the animals in the interim period.
In the next experiment, we investigated whether the performance of amnesic rats could be improved by administration of methylphenidate. In this experiment, control rats and rats with lesions of the fornix received injections of either saline or methylphenidate (5 mg/kg), and one hour later, were tested on the IA task.
Different doses of l-threo methylphenidate were administered to rats one hour prior to training on the Inhibitory Avoidance task. Retention for the task was tested 24 hours later. […] This experiment was subsequently replicated using a target dose of 5 mg/kg.
The effects of d-threo methylphenidate on memory consolidation as tested by the Inhibitory Avoidance task were also evaluated. Different doses of d-threo were administered to rats one hour prior to training on the Inhibitory Avoidance task.

[3] = cited from earlier work
[4] = test system: locomotor activity; assay: Activity monitoring task (locomotor activity levels)
Procedure: The effects of d-threo methylphenidate on locomotor activity was investigated by injecting rats with saline or 2.5 mg/kg of d-threo methylphenidate, and testing them one hour later on the activity monitoring task.
In order to investigate the effects of l-threo methylphenidate on activity levels, rats were injected with 5 mg/kg of l-threo methylphenidate, and underwent activity monitoring one hour later.

[5] = test system: attention and learning; assay: Brief Visuospatial Memory Test in healthy human volunteers; format: in vivo
Source text: (§1) The primary objective of the study is to identify the MTD and dose-limiting side-effects of l-threo methylphenidate hydrochloride. The secondary objectives included:
(§2) This was a randomised, double-blind, placebo-controlled, study including eight healthy male/female subjects. There were five treatment periods, each comprising two treatment days, with a 5-day washout period between dose levels. Subjects received four ascending doses of drug (a split dose on the first day of the treatment period and half the dose on the second day of the treatment period) and placebo. The placebo dose was randomly assigned to one of the five treatment periods. Each dose was taken orally.
(§3) The first dose level was administered on Day 1 and Day 2. After a 5-day washout period, subjects received the next dose level for 2 days. The period of washout and dose escalation was repeated until all five dose levels (four active dose levels and one placebo) were administered. Safety and tolerability was assessed after each treatment period to determine if subjects may advance to the next dose level.
Higher BVMT score indicates increased attention and learning.

[6] = test system: memory retention; assay: Providence Recognition Memory Test (Pictoral) in healthy human volunteers; format: in vivo; settings: PRMT (ascending) and RAVLT (descending) experiments together
Source text: as §1, §2, §3
Patients were assessed using the Providence Recognition Memory Test (Pictoral). Higher PRMT score indicates increased memory retention. […] This study was performed on Decending Plasma Curve of l-threo-methylphenidate. Higher RAVLT score indicates increased memory retention.

[7] = 2.5 mg/kg, tested one hour later, vs saline
[8] = 5 mg/kg, one hour later, vs saline

COC(=O)C(c1ccccc1)C1CCCCN1 (racemic) [methylphenidate, methyl α-phenyl-2-piperidineacetate]
performance of the fornix lesion rats on the IA task ([1]; FIG. 3): appeared to improve | performance of fornix animals vs normal, saline injected animals ([1]; post hoc test): not significantly different from normal, saline injected animals | retention on the IA task ([2]; 5 mg/kg injected thirty minutes prior to training): improved retention | performance of normal rats on the IA task ([2]; 5 mg/kg, one hour before, FIG. 3): dramatically enhanced | performance of normal rats vs all other experimental groups (Student-Newman-Keuls post hoc) ([2]; 5 mg/kg, one hour before, p<0.05): significantly enhanced relative to all other experimental groups | optimal pre-training drug administration time ([2]; 5 mg/kg, time of drug administration varied): most effective when administered to the rats one hour prior to training | retention of the IA task, second experiment ([2]; 5 mg/kg, unpaired t-test p<0.03, FIG. 2): significantly improved retention | retention on the IA task ([2]; 10 mg/kg injected thirty minutes prior to training): no effect | retention on the IA task ([2]; 15 mg/kg injected thirty minutes prior to training): no effect | performance at second retention test (long-term retention) ([2]; one week after the first retention test, no additional training or drug, t(54)=2.358, p<0.0220): still significantly enhanced | half-life ([3]; in adults): 2 to 3 h | time to excretion after dosing ([3]; in adults): 48 to 96 h

COC(=O)[C@H](c1ccccc1)[C@H]1CCCCN1 [d-threo methylphenidate, D-threo-methylphenidate]
memory consolidation in the Inhibitory Avoidance task, dose finding ([2]; 2.5 mg/kg one hour prior to training, FIG. 6): appears to be effective in improving memory | memory in the Inhibitory Avoidance task, replication ([2]; 2.5 mg/kg, t(85)=2.403, p<0.0184, FIG. 7): significant memory enhancing effects | number of movements [4, 7]: No significant main effects | number of stereotyped activities [4, 7]: No significant main effects | total distance moved [4, 7]: No significant main effects | number of rears ([4]; 2.5 mg/kg, tested one hour later, vs saline, F(1, 70)=19.60, p<0.0234): Significant main effects | movement time ([4]; 2.5 mg/kg, tested one hour later, vs saline, F(1, 70)=1304, p<0.0001): Significant main effects | rest time ([4]; 2.5 mg/kg, tested one hour later, vs saline, F(1, 70)=1322, p<0.0001): Significant main effects | hyperactivity (locomotor activity) ([4]; 2.5 mg/kg, tested one hour later, vs saline, FIG. 9): did not produce a large amount of hyperactivity

COC(=O)[C@@H](c1ccccc1)[C@@H]1CCCCN1 [l-threo methylphenidate, L-threo-methylphenidate]
enhancement of attention and learning by portion of the plasma curve ([5]; BVMT): more effective during the ascending portion of the plasma curve | attention and learning, BVMT score ([5]; ascending blood concentration, oral, healthy volunteers, FIG. 14): can enhance attention and learning in patients | performance on the Inhibitory Avoidance task, dose finding ([2]; 5 mg/kg one hour prior to training, retention tested 24 hours later, FIG. 4): appeared to be effective in enhancing performance | performance of the Inhibitory Avoidance task, replication ([2]; 5 mg/kg one hour prior to training, t(59)=2.686, p<0.0094, FIG. 5): significantly enhanced performance | half-life relative to dl-threo methylphenidate ([3]; strong evidence): even shorter half-life | activity levels compared to saline injected controls ([4]; 5 mg/kg, activity monitoring one hour later, FIG. 8): did not result in greatly increased activity levels | locomotor hyperactivity, overall ([4]; 5 mg/kg, one hour later): does not appear to result in serious locomotor hyperactivity | number of movements [4, 8]: no significant difference | number of stereotyped activities [4, 8]: no significant difference | total distance moved [4, 8]: no significant difference | number of rears ([4]; 5 mg/kg, one hour later, vs saline, F(1, 70)=74.26, p<0.0001): small, but statistically significant main effects | movement time ([4]; 5 mg/kg, one hour later, vs saline, F(1, 70)=728, p<0.0033): small, but statistically significant main effects | time spent resting ([4]; 5 mg/kg, one hour later, vs saline, F(1, 70)=730.6, p<0.0032): small, but statistically significant main effects | memory enhancement, ascending vs descending portion of the plasma curve [6]: more effective during the ascending portion of the plasma curve
